According to patent US20070049593A1 (priority 2004, published 2007):
Structures can show the parent of a compound that is named as a salt.

These compounds were tested against T1, HCV polymerase (Hepatitis C virus genotype 1b, UniProt P26663) (assay: biochemical).
T1 construct: a region encoding NS5B (J Virol 1991 March, 65(3), 1105-13, 544 amino acids after deletion of 47 amino acids on the C-terminal); 6xHis (C); made in house; host or cells: Escherichia coli
Parameters: species or system HCV BK strain
How it was run: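 His-tagged NS5B (BK strain, 47-aa C-terminal deletion, E. coli-expressed) at 0.5 μg/ml copied 5 μg/ml run-off RNA bearing the HCV 3′ UTR with 2 μM UTP plus [3H]UTP, 50 μM ATP/GTP, in pH 7.5 Tris with 5 mM MgCl2, 25 °C, 90 min. TCA-precipitated RNA was counted and IC50 calculated.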

T1 sequence (P26663 2420-2963): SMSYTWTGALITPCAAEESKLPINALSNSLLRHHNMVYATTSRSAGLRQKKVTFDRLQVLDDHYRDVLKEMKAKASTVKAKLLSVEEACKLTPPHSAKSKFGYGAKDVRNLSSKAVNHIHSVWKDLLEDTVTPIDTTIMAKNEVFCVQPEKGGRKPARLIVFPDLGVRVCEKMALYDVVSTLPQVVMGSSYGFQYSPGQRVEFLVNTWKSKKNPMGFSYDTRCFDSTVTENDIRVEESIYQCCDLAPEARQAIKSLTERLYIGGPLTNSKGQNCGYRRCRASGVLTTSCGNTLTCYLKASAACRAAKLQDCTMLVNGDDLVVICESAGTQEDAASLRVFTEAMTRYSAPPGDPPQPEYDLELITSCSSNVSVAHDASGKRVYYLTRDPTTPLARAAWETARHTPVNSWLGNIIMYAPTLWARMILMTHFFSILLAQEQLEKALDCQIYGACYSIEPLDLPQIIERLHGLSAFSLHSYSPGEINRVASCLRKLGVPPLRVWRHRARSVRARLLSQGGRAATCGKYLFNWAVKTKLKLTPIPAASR

SMILES	IC50 [nM]
CC(C)(CN[C@H]1CC[C@H](O)CC1)NC(=O)c1ccc2c(C3CCCCC3)c3n(c2c1)CCOc1ccccc1-3 [Example 2-239, N-[2-(trans-4-hydroxycyclohexylamino)-1,1-dimethylethyl]-12-cyclohexyl-6,7-dihydro-5-oxa-7a-azadibenzo[a,e]azulene-9-carboxamide]	100 to 1000
CN1CCCN(CCN2CCn3c(c(C4CCCCC4)c4ccc(C(=O)O)cc43)-c3ccccc32)CC1 [Example 1-53, 13-cyclohexyl-5-[2-(4-methyl-1,4-diazepan-1-yl)ethyl]-6,7-dihydro-5H-benzo[5,6][1,4]diazepino[7,1-a]indole-10-carboxylic acid trihydrochloride]	< 100
Cc1ccc2c(c1)N(CCCN(C)C)CCn1c-2c(C2CCCCC2)c2ccc(C(=O)O)cc21 [Example 1-301, 13-cyclohexyl-5-(3-dimethylaminopropyl)-3-methyl-6,7-dihydro-5H-benzo[5,6][1,4]diazepino[7,1-a]indole-10-carboxylic acid dihydrochloride]	< 100
COCCN(C)C(=O)[C@H](Cc1ccc(O)cc1)NC(=O)c1ccc2c(C3CCCCC3)c3n(c2c1)CCOc1cc(OC)ccc1-3 [Example 2-295, N-{(S)-2-(4-hydroxyphenyl)-1-[N-(2-methoxyethyl)-N-methylcarbamoyl]ethyl}-12-cyclohexyl-3-methoxy-6,7-dihydro-5-oxa-7a-azadibenzo[a,e]azulene-9-carboxamide]	< 100
COc1ccc2c(c1)OCCn1c-2c(C2CCCCC2)c2ccc(C(=O)N[C@@H](Cc3ccc(O)cc3)C3=NC(C)(C)C(=O)O3)cc21 [Example 2-524, N—[(S)-1-(4,4-dimethyl-5-oxo-4,5-dihydrooxazol-2-yl)-2-(4-hydroxyphenyl)ethyl]-12-cyclohexyl-3-methoxy-6,7-dihydro-5-oxa-7a-azadibenzo[a,e]azulene-9-carboxamide]	< 100
COc1ccc2c(c1)OCCn1c-2c(C2CCCCC2)c2ccc(C(=O)NC3(C(=O)Nc4ccc(/C=C/C(=O)O)cc4OC)CCC3)cc21 [Example 2-451, (E)-3-[4-({1-[(12-cyclohexyl-3-methoxy-6,7-dihydro-5-oxa-7a-azadibenzo[a,e]azulene-9-carbonyl)amino]cyclobutanecarbonyl}amino)-3-methoxyphenyl]acrylic acid]	< 100
COc1ccc2c(c1)OCCn1c-2c(C2CCCCC2)c2ccc(C(=O)N[C@@H](Cc3ccc(O)cc3)C(=O)NC(C)(C)C(=O)O)cc21 [Example 2-416, 2-[(S)-2-[(12-cyclohexyl-3-methoxy-6,7-dihydro-5-oxa-7a-azadibenzo[a,e]azulene-9-carbonyl)amino]-3-(4-hydroxyphenyl)propionylamino]-2-methylpropionic acid]	< 100
O=C(O)c1ccc2nc(CNC(=O)c3ccc4c(C5CCCCC5)c5n(c4c3)CCOc3ccccc3-5)[nH]c2c1 [Example 2-197, 2-{[(12-cyclohexyl-6,7-dihydro-5-oxa-7a-azadibenzo[a,e]azulene-9-carbonyl)amino]methyl}-3H-benzimidazole-5-carboxylic acid]	< 100
Cc1ccc2c(c1)N(CCN1CCC[C@@H](CCN3CCCC3=O)C1)CCn1c-2c(C2CCCCC2)c2ccc(C(=O)O)cc21 [Example 1-566, 13-cyclohexyl-3-methyl-5-(2-{(S)-3-[2-(2-oxopyrrolidin-1-yl)ethyl]piperidin-1-yl]ethyl}-6,7-dihydro-5H-benzo[5,6][1,4]diazepino[7,1-a]indole-10-carboxylic acid dihydrochloride]	< 100
Cc1ccc2c(c1)N(CC(=O)N1CCCOCC1)CCn1c-2c(C2CCCCC2)c2ccc(C(=O)O)cc21 [Example 1-476, sodium salt of 13-cyclohexyl-3-methyl-5-[2-(1,4-oxazepan-4-yl)-2-oxoethyl]-6,7-dihydro-5H-benzo[5,6][1,4]diazepino[7,1-a]indole-10-carboxylic acid]	< 100
COC(=O)N1CCC[C@H]1COc1ccc2c(c1)OCCn1c-2c(C2CCCCC2)c2ccc(C(=O)O)cc21 [Example 2-37, 12-cyclohexyl-3-((S)-1-methoxycarbonylpyrrolidin-2-ylmethoxy)-6,7-dihydro-5-oxa-7a-azadibenzo[a,e]azulene-9-carboxylic acid]	< 100
CCN1CCN(CCN2CCn3c(c(C4CCCCC4)c4ccc(C(=O)O)cc43)-c3ccccc32)CC1 [Example 1-38, 13-cyclohexyl-5-[2-(4-ethylpiperazin-1-yl)ethyl]-6,7-dihydro-5H-benzo[5,6][1,4]diazepino[7,1-a]indole-10-carboxylic acid dihydrochloride]	< 100
CC(C)(C)OC(=O)N1CCC(CCOc2cccc3c2OCCn2c-3c(C3CCCCC3)c3ccc(C(=O)O)cc32)CC1 [Example 2-457, 4-[2-(1-tert-butoxycarbonylpiperidin-4-yl)ethoxy]-12-cyclohexyl-6,7-dihydro-5-oxa-7a-azadibenzo[a,e]azulene-9-carboxylic acid]	< 100
COc1ccc2c(c1)OCCn1c-2c(C2CCCCC2)c2ccc(C(=O)N[C@@H](Cc3ccc(OCc4ccccc4)cc3)c3noc(=O)[nH]3)cc21 [Example 2-428, N—[(S)-2-(4-benzyloxyphenyl)-1-(5-oxo-4,5-dihydro-1,2,4-oxadiazol-3-yl)ethyl]-12-cyclohexyl-3-methoxy-6,7-dihydro-5-oxa-7a-azadibenzo[a,e]azulene-9-carboxamide]	< 100
Cc1ccc2c(c1)N(C1CCN(C(=O)OCc3ccccc3)CC1)CCn1c-2c(C2CCCCC2)c2ccc(C(=O)O)cc21 [Example 1-558, 5-(1-benzyloxycarbonylpiperidin-4-yl)-13-cyclohexyl-3-methyl-6,7-dihydro-5H-benzo[5,6][1,4]diazepino[7,1-a]indole-10-carboxylic acid]	100 to 1000
CC1CCCN(CCN2CCn3c(c(C4CCCCC4)c4ccc(C(=O)O)cc43)-c3ccc(Cl)cc32)C1 (stereo not shown) [Example 1-214, 3-chloro-13-cyclohexyl-5-[2-(3-methylpiperidin-1-yl)ethyl]-6,7-dihydro-5H-benzo[5,6][1,4]diazepino[7,1-a]indole-10-carboxylic acid dihydrochloride]	< 100
O=C(O)c1ccc2c(C3CCCCC3)c3n(c2c1)CCN(CCC1CCNCC1)c1cc(Cl)ccc1-3 [Example 1-244, 3-chloro-13-cyclohexyl-5-[2-(piperidin-4-yl)ethyl]-6,7-dihydro-5H-benzo[5,6][1,4]diazepino[7,1-a]indole-10-carboxylic acid dihydrochloride]	< 100
COCC[C@@H]1CCCN(C(=O)CN2CCn3c(c(C4CCCCC4)c4ccc(C(=O)O)cc43)-c3ccc(C)cc32)C1 [Example 1-570, 13-cyclohexyl-5-{2-[(S)-3-(2-methoxyethyl)piperidin-1-yl]-2-oxoethyl}-3-methyl-6,7-dihydro-5H-benzo[5,6][1,4]diazepino[7,1-a]indole-10-carboxylic acid]	< 100
CSc1ccc2c(c1)N(CCN1CCCCCC1)CCn1c-2c(C2CCCCC2)c2ccc(C(=O)O)cc21 [Example 1-289, 5-[2-(azepan-1-yl)ethyl]-13-cyclohexyl-3-methylsulfanyl-6,7-dihydro-5H-benzo[5,6][1,4]diazepino[7,1-a]indole-10-carboxylic acid dihydrochloride]	< 100
